The values below come from patent US8933122B2, “Use of cationic surfactants as sporicidal agents” (Laboratorios Miret, S.A., priority 2008, dated 2015).

The test relates to endospores from Clostridium sporogenes ATCC 7955. In words: Sporicidal activity, quantitative suspension test EN 13704:2002 (Example 5). Format: cell-based. The settings on record: 60 minutes contact, 20° C.; for Test of LAE sporicidal activity (Na), surviving spores count: water as interfering substance, N 1.3 × 10^6 cfu/mL. The protocol:
The determination of the sporicidal activity of LAE has been carried out according to the European standard EN 13704:2002 Chemical disinfectant—Quantitative suspension test for the evaluation of sporicidal activity of chemical disinfectants used in food, industrial, domestic and institutional areas—Test method and requirements”.
A test suspension containing endospores from Clostridium sporogenes ATCC 7955 was prepared from a culture grown on a nutrient agar, to which additional sporulation enhancement ingredients were added. Plates were harvested with sterile water and endospores were purified by repeated centrifugations and resuspensions in water.
Neutralizer. The neutralizer mixture consisted of 30 g/L polysorbate 80 in water. The solution was intended to neutralize any chemicals so that these would not affect subsequent growth of the bacteria.
The sporicidal activity of a given product is defined by its capacity to reduce at least by 10^3 the amount of Clostridium sporogenes bacterial spores in suspension, in the conditions established in the method.
The product was in contact with a suspension of bacterial spores during an established period of time of 60 minutes. An interfering substance can be added to the suspension, in this case water. Next, the effect of the product is neutralized by adding a neutralizer previously chosen, preceding to the surviving spores count.
• 1. Spore suspension obtained from a spored-form culture of Clostridium sporogenes. • 2. Count of the spore suspension of Clostridium sporogenes. • 3. The possible toxic effect of the neutralizer on the spores in the absence of the product is valued. • 4. […] Results: Results are expressed as the reduction of viability of the spore suspension in regards to: […]
Sporicidal activity is calculated following the criteria of the Standard EN 13704: 2002 R=N×0.1/Na N is cfu/mL of the spore suspension. […] The calculated reduction (R) of a solution of: • 13 μg/mL of LAE is R<10^3 cfu/mL • 26 μg/mL of LAE is R<10^3 cfu/mL • 51 μg/mL of LAE is R>10^3 cfu/mL • 64 μg/mL of LAE is R>10^3 cfu/mL

A value given as a limit tells only on which side of the number the result lay.

As to `CCCCCCCCCCCC(=O)N[C@@H](CCCN=C(N)N)C(=O)OCC.Cl` [LAE, ethyl ester of the lauramide of the arginine monohydrochloride], where the note is “EN 13704:2002”, the “concentration displaying sporicidal activity (reduction equal or above 10^3)” value is reported as at least 51 μg/mL. Moreover, the “Test of LAE sporicidal activity (Na), surviving spores count” value is on record as 3.3 × 10^3 cfu/mL (LAE 13 μg/mL) and 2.3 × 10^3 cfu/mL (LAE 26 μg/mL).
